Columns and labels:
Assay in all cases: ITC
Conditions in all cases: 500 mM NaCl, 20 mM MgCl2; 50 mM Tris pH 7.6, 25 °C
[1] = tested on: 1301b_v1 (DNA, aptamer) CGACGTTTGCGATGAGAACGAAGTTCGAAGGTCG
[2] = tested on: wild-type 1301b (DNA, aptamer) ACGACGTTTGCGATGAGAAACGTATGGTTTCGAAGGTCGT
[3] = tested on: 9/10/14/16^OMe (DNA, aptamer, 2'-O-methyl at G9, C10, G14, G16) CGACGTTTGCGATGAGAACGAAGTTCGAAGGTCG

Compound | binding [1] | KD [1] [µM] | further results
Cc1cn([C@H]2C[C@H](O)[C@@H](COP(=O)(O)OP(=O)(O)OP(=O)(O)O)O2)c(=O)[nH]c1=O | no | – | –
Nc1ccn([C@@H]2O[C@H](COP(=O)(O)OP(=O)(O)OP(=O)(O)O)[C@@H](O)[C@H]2O)c(=O)n1 | no | – | –
Nc1nc2c(ncn2[C@@H]2O[C@H](COP(=O)(O)OP(=O)(O)OP(=O)(O)O)[C@@H](O)[C@H]2O)c(=O)[nH]1 | no | – | –
Nc1ncnc2c1ncn2[C@@H]1O[C@H](COP(=O)(O)O)[C@@H](O)[C@H]1O | – | 13.2 ± 2.4 | –
Nc1ncnc2c1ncn2[C@@H]1O[C@H](COP(=O)(O)OP(=O)(O)O)[C@@H](O)[C@H]1O | – | 4.4 ± 0.3 | –
Nc1ncnc2c1ncn2[C@@H]1O[C@H](COP(=O)(O)OP(=O)(O)OP(=O)(O)O)[C@@H](O)[C@H]1O | – | 1.9 ± 0.1 | KD [2]: 2.7 ± 0.6 µM; KD [3]: 3.8 ± 0.4 µM
Nc1ncnc2c1ncn2[C@H]1C[C@H](O)[C@@H](COP(=O)(O)OP(=O)(O)OP(=O)(O)O)O1 | – | 3.4 ± 0.2 | –
O=c1ccn([C@@H]2O[C@H](COP(=O)(O)OP(=O)(O)OP(=O)(O)O)[C@@H](O)[C@H]2O)c(=O)[nH]1 | no | – | –
